Measurements taken from patent publication US20090111857A1, “1,2,4-TRIAZOLE ETHER DERIVATIVES AS MODULATORS OF MGLUR5” (AstraZeneca AB, priority 2007, published 2009).

Key:
[1] = Determination of brain to plasma ratio in rat; assay type: in vivo; conditions: brain and plasma, female Sprague Dawley rats, drug in brain over drug in plasma, read-out: Brain/Plasma Ratio of compound in Rat
Procedure: Brain to plasma ratios are estimated in female Sprague Dawley rats. The compound is dissolved in water or another appropriate vehicle. For determination of brain to plasma ratio the compound is administrated as a subcutaneous, or an intravenous bolus injection, or an intravenous infusion, or an oral administration. At a predetermined time point after the administration a blood sample is taken with cardiac puncture. The rat is terminated by cutting the heart open, and the brain is immediately retained. The blood samples are collected in heparinized tubes and centrifuged within 30 minutes, in order to separate the plasma from the blood cells. The plasma is transferred to 96-well plates and stored at −20° C. until analysis. The brains are divided in halt and each half is placed in a pre-tarred tube and stored at −20° C. until analysis. Prior to the analysis, the brain samples are thawed and 3 mL/g brain tissue of distilled water is added to the tubes. The brain samples are sonicated in an ice bath until the samples are homogenized. Both brain and plasma samples are precipitated with acetonitrile. After centrifugation, the supernatant is diluted with 0.2% formic acid. Analysis is performed on a short reversed-phase HPLC column with rapid gradient elution and MSMS detection using a triple quadrupole instrument with electrospray ionisation and Selected Reaction Monitoring (SRM) acquisition. Liquid-liquid extraction may be used as an alternative sample clean-up. The samples are extracted, by shaking, to an organic solvent after addition of a suitable buffer. An aliquot of the organic layer is transferred to a new vial and evaporated to dryness under a stream of nitrogen. After reconstitution of the residuals the samples are ready for injection onto the HPLC column.

human mGluR5d = biological target: T1, human mGluR5d (Homo sapiens, UniProt P41594); test: FLIPR assay: mobilization of intracellular calcium in cells expressing human mGluR5d; assay type: cell-based; conditions: antagonism of agonist-induced [Ca2+]i response, read-out: FLIPR hmGluR5d
T1 construct: expressed in transfected cells; The separate IP3 assay names GHEK cells
T1 sequence (P41594 21-942 isoform P41594-3 limits assumed): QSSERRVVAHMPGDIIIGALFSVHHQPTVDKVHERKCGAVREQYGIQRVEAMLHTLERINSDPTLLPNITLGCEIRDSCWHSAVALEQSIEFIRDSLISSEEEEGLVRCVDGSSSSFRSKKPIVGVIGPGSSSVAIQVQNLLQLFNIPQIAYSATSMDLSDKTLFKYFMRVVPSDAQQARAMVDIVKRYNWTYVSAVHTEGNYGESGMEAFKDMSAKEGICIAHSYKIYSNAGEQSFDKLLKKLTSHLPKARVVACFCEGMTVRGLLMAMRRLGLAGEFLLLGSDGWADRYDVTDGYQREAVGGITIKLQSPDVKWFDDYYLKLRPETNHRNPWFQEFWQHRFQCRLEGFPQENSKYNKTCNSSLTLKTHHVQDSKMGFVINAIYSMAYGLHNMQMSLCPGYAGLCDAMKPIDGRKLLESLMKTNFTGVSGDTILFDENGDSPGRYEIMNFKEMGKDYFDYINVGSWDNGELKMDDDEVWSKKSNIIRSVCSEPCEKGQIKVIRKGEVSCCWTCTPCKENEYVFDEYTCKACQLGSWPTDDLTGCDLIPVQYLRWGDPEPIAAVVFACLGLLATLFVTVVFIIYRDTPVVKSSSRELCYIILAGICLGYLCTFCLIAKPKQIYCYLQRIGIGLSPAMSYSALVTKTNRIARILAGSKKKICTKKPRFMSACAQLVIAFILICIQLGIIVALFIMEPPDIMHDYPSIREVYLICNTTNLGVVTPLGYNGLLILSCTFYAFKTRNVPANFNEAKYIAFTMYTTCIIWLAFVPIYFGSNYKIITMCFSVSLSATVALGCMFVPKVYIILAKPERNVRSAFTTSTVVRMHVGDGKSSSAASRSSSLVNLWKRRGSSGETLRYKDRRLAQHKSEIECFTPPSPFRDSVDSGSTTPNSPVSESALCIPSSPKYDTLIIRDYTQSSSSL
Source text: Functional Assessment of mGluR5 Antagonism in Cell Lines Expressing mGluR5D
The properties of the compounds of the invention can be analyzed using standard assays for pharmacological activity. Examples of glutamate receptor assays are well known in the alt as described in for example Aramori et al., Neuron 8:757 (1992), Tanabe et al., Neuron 8:169 (1992), Miller et al., J. Neuroscience 15: 6103 (1995), Balazs, et al., J. Neurochemistry 69:151 (1997). The methodology described in these publications is incorporated herein by reference. Conveniently, the compounds of the invention can be studied by means of an assay (FLIPR) that measures the mobilization of intracellular calcium, [Ca^2+]i in cells expressing mGluR5 or another assay (IP3) that measures inositol phosphate turnover.
Cells expressing human mGluR5d as described in WO97/05252 cultured in a mixture of high glucose DMEM with Glutamax (31966-021)(500 mL), 10% dialyzed fetal bovine serum (Hyclone #SH30079.03)(56 mL), 200 μg/in L Hygromycin B (Invitrogen 45-0430, 50 mg/mL)(2.2 mL), 200 μg/mL Zeocin (Invitrogen #R250-01; 100 mg/mL)(1.1 mL) are seeded at a density of 100,000 cells per well on collagen coated clear bottom 96-well plates with black sides and cells were allowed to adhere over night before experiments. All assays are done in a buffer containing 146 mM NaCl, 5 mM KCl, 1 mM MgCl2, 1 mM CaCl2, 20 mM HEPES, 1 mg/mL glucose and 1 mg/mL BSA Fraction IV (pH 7.4). Cell cultures in the 96-well plates are loaded for 60 minutes in the above mentioned buffer containing 6 μM of the acetoxymethyl ester form of the fluorescent calcium indicator fluo-3 (Molecular Probes, Eugene, Oreg.) in 0.025% pluronic acid (a proprietary, non-ionic surfactant polyol—CAS Number 9003-11-6). Following the loading period the fluo-3 buffer is removed and replaced with fresh assay buffer. FLIPR experiments are done using a laser setting of 0.700 W and a 0.4 second CCD camera shutter speed with excitation and emission wavelengths of 488 nm and 562 nm, respectively. Each experiment is initiated with 160 μl of buffer present in each well of the cell plate. A 40 μl addition from the antagonist plate was followed by a 50 μL addition from the agonist plate. A 30 minutes, in dark at 25° C., interval separates the antagonist and agonist additions. The fluorescence signal is sampled 50 times at 1-second intervals followed by 3 samples at 5-second intervals immediately after each of the two additions. Responses are measured as the difference between the peak heights of the response to agonist less the background fluorescence within the sample period. IC50 determinations are made using a […] least squares fitting program.

| Kp [1] | IC50 (human mGluR5d) [nM] | SMILES |
| --- | --- | --- |
| 0.03 | 8 | C[C@@H](Oc1nnc(-c2ccc(C(N)=O)cc2)n1C)c1noc(-c2cccc(Cl)c2)n1 [Example 10.1, 4-(5-{(1R)-1-[5-(3-Chlorophenyl)-1,2,4-oxadiazol-3-yl]ethoxy}-4-methyl-4H-1,2,4-triazol-3-yl)benzamide] |
| 0.01 | 6 | C[C@@H](Oc1nnc(-c2ccc(C(N)=O)cc2)n1C)c1nnn(-c2cccc(Cl)c2)n1 [Example 10.2, 4-(5-{(1R)-1-[2-(3-Chlorophenyl)-2H-tetrazol-5-yl]ethoxy}-4-methyl-4H-1,2,4-triazol-3-yl)benzamide] |
| 0.075 | 5 | C[C@@H](Oc1nnc(-c2ccc(C(N)=O)cn2)n1C)c1nnn(-c2cccc(Cl)c2)n1 [Example 10.3, 6-(5-{(1R)-1-[2-(3-Chlorophenyl)-2H-tetrazol-5-yl]ethoxy}-4-methyl-4H-1,2,4-triazol-3-yl)nicotinamide] |
| 0.09 | 6 | Cc1cccc(-n2nnc([C@@H](C)Oc3nnc(-c4ccc(C(N)=O)cn4)n3C)n2)c1 [Example 10.4, 6-(4-Methyl-5-{(1R)-1-[2-(3-methylphenyl)-2H-tetrazol-5-yl]ethoxy}-4H-1,2,4-triazol-3-yl)nicotinamide] |
